Results reported in ChEMBL document CHEMBL4190297, “Cafestol, a Bioactive Substance in Coffee, Has Antidiabetic Properties in KKAy Mice” (J Nat Prod, 2017).
Activity calls are given as the source filed them. The rule behind the calls is not given here.

How the values were obtained:
[1] = organism: Mus musculus; test: Toxicity in KK-Ay diabetic mouse model assessed as effect on average 24 hrs food consumption by measured food consumption at 0.4 mg added daily to normal chow pellets for 10 weeks (reference value: 4.7 +/- 0.2 g); type: organism-based; conditions: in vivo, po
[2] = organism: Mus musculus; test: Antidiabetic activity in KK-Ay diabetic mouse model assessed as decrease in GCRG mRNA expression levels in muscle tissue at 0.4 mg added daily to normal chow pellets for 10 weeks by qRT-PCR analysis; type: functional, organism-based
[3] = organism: Mus musculus; test: Effect on LXRalpha mRNA expression levels in adipose tissue of KK-Ay diabetic mouse model at 0.4 to 1.1 mg added daily to normal chow pellets for 10 weeks by qRT-PCR analysis; type: functional, organism-based
[4] = organism: Mus musculus; test: Effect on Lipc mRNA expression levels in adipose tissue of KK-Ay diabetic mouse model at 0.4 to 1.1 mg added daily to normal chow pellets for 10 weeks by qRT-PCR analysis; type: functional, organism-based
[5] = organism: Mus musculus; test: Effect on InsR mRNA expression levels in adipose tissue of KK-Ay diabetic mouse model at 0.4 to 1.1 mg added daily to normal chow pellets for 10 weeks by qRT-PCR analysis; type: functional, organism-based
[6] = organism: Mus musculus; test: Effect on GLUT2 mRNA expression levels in adipose tissue of KK-Ay diabetic mouse model at 0.4 to 1.1 mg added daily to normal chow pellets for 10 weeks by qRT-PCR analysis; type: functional, organism-based
[7] = organism: Mus musculus; test: Effect on Gcgr mRNA expression levels in adipose tissue of KK-Ay diabetic mouse model at 0.4 to 1.1 mg added daily to normal chow pellets for 10 weeks by qRT-PCR analysis; type: functional, organism-based
[8] = organism: Mus musculus; test: Effect on G6PD mRNA expression levels in adipose tissue of KK-Ay diabetic mouse model at 0.4 to 1.1 mg added daily to normal chow pellets for 10 weeks by qRT-PCR analysis; type: functional, organism-based
[9] = organism: Mus musculus; test: Effect on FABP4 mRNA expression levels in adipose tissue of KK-Ay diabetic mouse model at 0.4 to 1.1 mg added daily to normal chow pellets for 10 weeks by qRT-PCR analysis; type: functional, organism-based
[10] = organism: Mus musculus; test: Effect on Adipor1 mRNA expression levels in adipose tissue of KK-Ay diabetic mouse model at 0.4 to 1.1 mg added daily to normal chow pellets for 10 weeks by qRT-PCR analysis; type: functional, organism-based
[11] = organism: Mus musculus; test: Effect on Acaca mRNA expression levels in adipose tissue of KK-Ay diabetic mouse model at 0.4 to 1.1 mg added daily to normal chow pellets for 10 weeks by qRT-PCR analysis; type: functional, organism-based
[12] = organism: Mus musculus; test: Effect on SOD2 mRNA expression levels in muscle of KK-Ay diabetic mouse model at 0.4 to 1.1 mg added daily to normal chow pellets for 10 weeks by qRT-PCR analysis; type: functional, organism-based
[13] = organism: Mus musculus; test: Effect on PPARGC1alpha mRNA expression levels in muscle of KK-Ay diabetic mouse model at 0.4 to 1.1 mg added daily to normal chow pellets for 10 weeks by qRT-PCR analysis; type: functional, organism-based
[14] = organism: Mus musculus; test: Effect on PKCdelta mRNA expression levels in muscle of KK-Ay diabetic mouse model at 0.4 to 1.1 mg added daily to normal chow pellets for 10 weeks by qRT-PCR analysis; type: functional, organism-based
[15] = organism: Mus musculus; test: Effect on Mtor mRNA expression levels in muscle of KK-Ay diabetic mouse model at 0.4 to 1.1 mg added daily to normal chow pellets for 10 weeks by qRT-PCR analysis; type: functional, organism-based
[16] = organism: Mus musculus; test: Effect on LXRalpha mRNA expression levels in muscle of KK-Ay diabetic mouse model at 0.4 to 1.1 mg added daily to normal chow pellets for 10 weeks by qRT-PCR analysis; type: functional, organism-based
[17] = organism: Mus musculus; test: Effect on Hprt1 mRNA expression levels in muscle of KK-Ay diabetic mouse model at 0.4 to 1.1 mg added daily to normal chow pellets for 10 weeks by qRT-PCR analysis; type: functional, organism-based
[18] = organism: Mus musculus; test: Effect on GLUT2 mRNA expression levels in muscle of KK-Ay diabetic mouse model at 0.4 to 1.1 mg added daily to normal chow pellets for 10 weeks by qRT-PCR analysis; type: functional, organism-based
[19] = organism: Mus musculus; test: Effect on G6PD mRNA expression levels in muscle of KK-Ay diabetic mouse model at 0.4 to 1.1 mg added daily to normal chow pellets for 10 weeks by qRT-PCR analysis; type: functional, organism-based
[20] = organism: Mus musculus; test: Effect on Acaca mRNA expression levels in muscle of KK-Ay diabetic mouse model at 0.4 to 1.1 mg added daily to normal chow pellets for 10 weeks by qRT-PCR analysis; type: functional, organism-based
[21] = organism: Mus musculus; test: Effect on SOD2 mRNA expression levels in liver of KK-Ay diabetic mouse model at 0.4 to 1.1 mg added daily to normal chow pellets for 10 weeks by qRT-PCR analysis; type: functional, organism-based
[22] = organism: Mus musculus; test: Effect on PPARgamma mRNA expression levels in liver of KK-Ay diabetic mouse model at 0.4 to 1.1 mg added daily to normal chow pellets for 10 weeks by qRT-PCR analysis; type: functional, organism-based
[23] = organism: Mus musculus; test: Effect on PPARGC1alpha mRNA expression levels in liver of KK-Ay diabetic mouse model at 0.4 to 1.1 mg added daily to normal chow pellets for 10 weeks by qRT-PCR analysis; type: functional, organism-based
[24] = organism: Mus musculus; test: Effect on Pi3K mRNA expression levels in liver of KK-Ay diabetic mouse model at 0.4 to 1.1 mg added daily to normal chow pellets for 10 weeks by qRT-PCR analysis; type: functional, organism-based
[25] = organism: Mus musculus; test: Effect on IRS2 mRNA expression levels in liver of KK-Ay diabetic mouse model at 0.4 to 1.1 mg added daily to normal chow pellets for 10 weeks by qRT-PCR analysis; type: functional, organism-based
[26] = organism: Mus musculus; test: Effect on Gcgr mRNA expression levels in liver of KK-Ay diabetic mouse model at 0.4 to 1.1 mg added daily to normal chow pellets for 10 weeks by qRT-PCR analysis; type: functional, organism-based
[27] = organism: Mus musculus; test: Effect on FABP4 mRNA expression levels in liver of KK-Ay diabetic mouse model at 0.4 to 1.1 mg added daily to normal chow pellets for 10 weeks by qRT-PCR analysis; type: functional, organism-based
[28] = organism: Mus musculus; test: Effect on CD36 mRNA expression levels in liver of KK-Ay diabetic mouse model at 0.4 to 1.1 mg added daily to normal chow pellets for 10 weeks by qRT-PCR analysis; type: functional, organism-based
[29] = organism: Mus musculus; test: Effect on Abca1 mRNA expression levels in liver of KK-Ay diabetic mouse model at 0.4 to 1.1 mg added daily to normal chow pellets for 10 weeks by qRT-PCR analysis; type: functional, organism-based
[30] = organism: Mus musculus; test: Effect on PPARGC1alpha mRNA expression levels in adipose tissue of KK-Ay diabetic mouse model at 0.4 to 1.1 mg added daily to normal chow pellets for 10 weeks by qRT-PCR analysis; type: functional, organism-based
[31] = organism: Mus musculus; test: Toxicity in KK-Ay diabetic mouse model assessed as effect on body weight at 0.4 mg added daily to normal chow pellets for 4 weeks; type: organism-based; conditions: in vivo, po, 672 h
[32] = organism: Mus musculus; test: Effect on Sirt1 mRNA expression levels in adipose tissue of KK-Ay diabetic mouse model at 0.4 to 1.1 mg added daily to normal chow pellets for 10 weeks by qRT-PCR analysis; type: functional, organism-based

For `C[C@@]12CCc3occc3[C@H]1CC[C@@]13C[C@H](CC[C@H]12)[C@@](O)(CO)C3`, the Activity [1] was 5.4 g, the Activity [2] was “Active” and the Activity [3] was “inactive”. For the same compound, the Activity [4] was “inactive”, the Activity [5] was “inactive” and the Activity [6] was “inactive”. The Activity [7] was “inactive”, the Activity [8] was “inactive” and the Activity [9] was “inactive”. For the same compound, the Activity [10] was “inactive”, the Activity [11] was “inactive” and the Activity [12] was “inactive”. For the same compound, the Activity [13] was “inactive”, the Activity [14] was “inactive” and the Activity [15] was “inactive”. The Activity [16] was “inactive”, the Activity [17] was “inactive” and the Activity [18] was “inactive”. The Activity [19] was “inactive”, the Activity [20] was “inactive” and the Activity [21] was “inactive”. The Activity [22] was “inactive”, the Activity [23] was “inactive” and the Activity [24] was “inactive”. The Activity [25] was “inactive”, the Activity [26] was “inactive” and the Activity [27] was “inactive”. For the same compound, the Activity [28] was “inactive”, the Activity [29] was “inactive” and the Activity [30] was “inactive”. For the same compound, the Activity [31] was “Non-Toxic” and the Activity [32] was “inactive”.
